Reference: patent US20030070691A1, “Biocide formation via ozonation” (priority 2000, published 2003)
“And” between values parts separate entries of the source, which are not always exact repeats. Equal values may be shown once. Read-outs that look alike come from different tables or passages of the source.

Key:
[1] = test system: Enterococcus faecium (Gram positive); assay: Biocidal test on dried cells on glass slides; type: cell-based
Procedure: (§1) 0.1 milliliters of a 3×10^6 cfu/mL solution of bacteria cells harvested from a mid-log phase culture were placed on a glass microscope slide. The solution was allowed to dry for 2 hours leaving only cells on the surface. The slides were treated by immersing them in 10 mL of either: (i) sterile water; (ii) 10% ethanol in water; (iii) 10% ozonated ethanol in water; or (iv) 1% ozonated ethanol in water for either 5 or 20 seconds. Immediately after treatment the slides were removed from solution and immersed in 3-mL of a sterile saline solution and ultrasonicated for 10 minutes to dislodge the cells from the slide. The recovered cells were diluted, plated, and incubated at 37° C. overnight and colonies were counted to determine the number of survivors per slide. Initial recovery was determined using the above procedure but the treatment step was omitted.

[2] = test system: Klebsiella pneumoniae (Gram negative); assay: Biocidal test on dried cells on glass slides; type: cell-based
Procedure: as §1

[3] = at 20° C.; Handbook of Chemistry and Physics; cited from earlier work
Bacillus subtilis spores = assay: Bacillus subtilis spore carrier disinfection test; type: cell-based; conditions: 30 minutes contact
Procedure: Preparation of carriers. In each of the following examples, the disinfection solutions were evaluated using spores of Bacillus subtilis. Spores were placed onto glass carriers formed by cutting microscope slides in half lengthways. Slides were placed in a culture tube that was capped and sterilized prior to inoculation with spores. A total of 0.1 mL of a spore suspension containing 10% bovine serum albumin by weight was placed onto a small area near one end of the slide. Approximately 20 μL (microliters) of spore suspension was added at a time for 5 times, allowing each 20μL amount to dry between additions. Heat drying was performed by briefly holding the slide over a flame. The heat-fixed culture was stored in the refrigerator until needed for up to, but no longer than, 5 days.
Disinfection of carriers. In the following examples, three vials were prepared, each containing 200 mL of the disinfectant composition to be evaluated. One spore carrier was placed into each vial. The spore carriers were held in the disinfection solutions for 30 minutes. After contacting was complete, the carriers were removed from the disinfection solutions using forceps and rinsed with sterile saline.
Spore recovery and enumeration. After rinsing, each of the slides was placed in a sterile tube containing 2 mL of saline. […] Invert plates were incubated at 37° C. and counted after 24 hours. […]

[4] = Dissolved ozone concentration by indigo colorimetric method; type: physicochemical; conditions: for dissolved ozone concentration: ozonated 5 minutes, 10 wt % ozone gas
Procedure: Solutions containing varying amounts of acetic acid were saturated with ozone. Solutions were prepared containing 50%, 75%, 90%, 95%, and 99% by volume acetic acid in water. In separate experiments, 100 mL of the above solutions were placed in 250 mL round bottom flasks fitted with a ground glass top. The top contained two fittings that permitted gas flow in through one fitting and gas flow out through the other. A mixture of ozone and oxygen was delivered from Lynntech's Model 124 Electrochemical Ozone generator to the solution through a stainless steel gas diffusing stone. The flow rate was approximately 1,000 mL of gas per minute, and the concentration of ozone was 10% by weight. The solutions were ozonated for 5 minutes and the concentration of dissolved ozone was determined by the indigo calorimetric method. An additional solution of 100 mL of deionized water and a solution of 100 mL of glacial acetic acid were also ozonated.
The concentration of dissolved ozone was determined by the indigo colorimetric method. An indigo stock solution was prepared by adding 500 mL of deionized water and 1 mL of phosphoric acid to a 1 L volumetric flask. 770 mg of potassium indigo trisulfonate was added to the flask, and stirring was continued until the dye was completely dissolved. The flask was filled to the mark with deionized water. A working indigo solution was prepared by adding 20 mL of indigo stock solution, 10 g of sodium dihydrogen phosphate (NaH2PO4), and 7 mL of concentrated phosphoric acid to a 1 L volumetric flask. The flask was filled to the mark with deionized water. The concentration of ozone in solution was determined by adding an aliquot of ozonated solution (typically 30 μL) to 3 mL of working indigo solution in a 1 cm path-length quartz cuvette. The cuvette was capped with a piece of Parafilm® (American National Can Company, Chicago, Ill.) and inverted a few times to mix the solutions. As a blank, the same volume the equivalent non-ozonated solution was added to 3 mL of working indigo solution in a matched cuvette and mixed. […] The absorbance at 600 nm was measured to provide the difference in absorbance between the blank and the sample. […]
where ΔA is the difference in absorbance between the sample and the blank, b is the path-length of the cuvette, Vw is the volume of working indigo solution, Vs is the volume of sample, and f is 0.42. f is based on a sensitivity factor of 20,000/cm for the change in absorbance at 600 nm per mole of ozone added per liter. […]
200 mL of 81% acetic acid by volume (in DI water) water was ozonated in a glass flask. […] At the same time a liquid sample was withdrawn from the beaker and its ozone concentration measured by the method described above. […]

[5] = neutral aqueous solution, cited from earlier work
[6] = Stability of ozonated ethanol solutions over 72 hours; type: physicochemical; conditions: ethanol (99 vol. %) ozonated 4 hours at 22° C.; 72-hour period
Procedure: The first step was the titration of hydrogen peroxide with ceric sulfate. A small amount of the peracetic acid solution (0.25 mL) was placed in 100 mL of ice-cold 1 N H2SO4 to which was also added three drops of ferroin indicator (Aldrich Chemical Company, Milwaukee, Wis.). The faint pink colored solution was then titrated with 0.1 M Ce(SO4)2 until the colorless endpoint was reached. Because cerium(IV) has a higher oxidation potential than hydrogen peroxide, hydrogen peroxide was oxidized to protons and molecular oxygen according the stoichiometry shown in the following reaction:
5 mL of 0.18 M KI was added to the solution and the mixture was stirred for 30 seconds. The solution was then placed in the dark for 30 minutes. After the 30-minute reaction time, the solution was yellowish brown and the color was proportional to the amount of peracetic acid originally present in the solution. The brown color was produced by oxidation of the colorless iodide anion (I^−) to the brown-colored iodine (I2) molecule by peracetic acid as shown in the following reaction: […]
Experiments were done to determine the stability of ozonated ethanol solutions over a 72-hour period. Ethanol (99 vol. %) was ozonated for 4 hours at 22° C. and the amount of AMP and peracetic acid was measured as a function of time over the next three days. […]

[7] = 5-second contact time, Log10 Start 4.9, Table 4
[8] = 20-second contact time, Log10 Start 5.4, Table 3
[9] = 20-second contact time, Log10 Start 7.4, Table 7
[10] = 5-second contact time, Log10 Start 5.3, Table 6
[11] = 20-second contact time, Log10 Start 4.8, Table 5
[12] = 20-second contact time, Log10 Start 6.3, Table 8

CCO [10 vol. % Ethanol in Water (control), Ethanol]
Log10 Recovered [1, 7]: 4.3 Log10 | Log10 Reduction [1, 7]: 0.6 Log10 | Log10 Recovered [1, 8]: 5.2 Log10 | Log10 Reduction [1, 8]: 0.2 Log10 | Log10 Recovered [1, 9]: 4.5 Log10 | Log10 Reduction [1, 9]: 2.9 Log10 | Log10 Recovered [2, 10]: 3.3 Log10 | Log10 Reduction [2, 10]: 2.0 Log10 | Log10 Recovered [2, 11]: 4.3 Log10 | Log10 Reduction [2, 11]: 0.5 Log10 | Log10 Recovered [2, 12]: 6.4 Log10 | Log10 Reduction [2, 12]: −0.1 Log10

CCCC(=O)O [butyric acid]
published ionization constant [3]: 4.81

CC(=O)O [non-ozonated 81% acetic acid, acetic acid]
log reduction in viable spores, best achieved (Bacillus subtilis spores; Example 11): ≤ 2.87 log | sporicidal / disinfection activity in words (Bacillus subtilis spores; glass carriers, spores in 10% bovine serum albumin): relatively ineffective

O=[O+][O-] [ozone]
initial ozone concentration at the time the spore carriers were immersed ([4]; in 81% acetic acid ozonated 10 minutes): 125 ppm and 175 ppm | dissolved ozone concentration ([4]; in DI water): about 30 ppm | initial ozone concentration ([4]; in ozonated DI water, Example 11): ≤ 31 ppm | dissolved ozone concentration ([4]; in pure acetic acid): greater than 400 ppm | Ozone Concentration (solubility) ([5]; 0° C.): 35 (ppm) | Ozone Concentration (solubility) ([5]; 20° C.): 21 ppm | Ozone Concentration (solubility) ([5]; 40° C.): 4 ppm | Ozone Concentration (solubility) ([5]; 60° C.): 0 ppm

CC(=O)OO [peracetic acid]
concentration in solution over time [6]: constant

acetaldehyde monoperacetate [AMP]
concentration in solution over time [6]: decreases considerably
